Data from article PMC8580066 (2021).

Legend:
[1] = system: c-Myc (DNA, G4) TGAGGGTGGGTAGGGTGGGTAA; experiment: fluorescence titration, competitive binding model; conditions: K+ 100 mM, 10 mM lithium cacodylate, pH 7.3, 32% and 96% ee samples, helicene 6 μM, per site
[2] = system: BCL2 (BCL2Mid) (DNA, G4) GGGCGCGGGAGGAATTGGGCGGG; experiment: fluorescence titration, competitive binding model; conditions: K+ 100 mM, 10 mM lithium cacodylate, pH 7.3, 32% and 96% ee samples, helicene 6 μM, per site
[3] = system: HTG4 (DNA, G4) AGGGTTAGGGTTAGGGTTAGGG; experiment: fluorescence titration, competitive binding model; conditions: K+ 100 mM, 10 mM lithium cacodylate, pH 7.3, 32% and 96% ee samples, helicene 6 μM, per site
[4] = system: c-Myc (DNA, G4) TGAGGGTGGGTAGGGTGGGTAA; experiment: fluorescence titration, simple binding model; conditions: K+ 100 mM, 10 mM lithium cacodylate, pH 7.3, stoichiometry fixed, equivalent stereoisomers, per site
[5] = system: c-Myc (DNA, G4) TGAGGGTGGGTAGGGTGGGTAA; experiment: thiazole orange displacement (TO-FID); conditions: K+ 100 mM; 10 mM Tris-HCl, pH 7.3; thiazole orange 2 μM displaced; DNA 1 μM; helicene 0-20 μM

Kd ([1]; KM from simultaneous fit of 0%) [µM]	Kd ([1]; KP from simultaneous fit of 0%) [µM]	Kd ([2]; KM from simultaneous fit of 0%) [µM]	Kd ([2]; KP from simultaneous fit of 0%) [µM]	Kd ([3]; KM from simultaneous fit of 0%) [µM]	Kd ([3]; KP from simultaneous fit of 0%) [µM]	Kd [4] [µM]	DC50 [5] [µM]	Kd ([4]; helicene 4 μM constant) [µM]	Structure (SMILES)
3.8	4.7	5.1	7.5	6.2	7.5	4.7	4.4		OCCN1c2ccc3ccccc3c2-c2c3c1cccc3[n+](CCO)c1ccc3ccccc3c21
							3.8	0.7	CCCN1c2ccc3ccccc3c2-c2c3c1cccc3[n+](CCC)c1ccc3ccccc3c21
						3.8	6.0		c1ccc2c3c(ccc2c1)N(CCN1CCOCC1)c1cccc2c1c-3c1c3ccccc3ccc1[n+]2CCN1CCOCC1
